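Protocol summary: plate cells (96-well), add compound at 5 concentrations, incubate 48 h, interpolate endpoints linearly. At the GI50, growth is halved.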 Calls of active or inactive are those of the source. Rule as the data show it: active = GI50 up to about 1.1 µM and inactive = higher.
Assays:
Assay in all cases: inhibition of tumour cell growth, NCI panel, 48 h
A549 = test system: A549
HT-29 = test system: HT-29
SF-268 = test system: SF-268
NCI-H460 = test system: NCI-H460
SNB-19 = test system: SNB-19
MDA-MB-231 = test system: MDA-MB-231
HCT-15 = test system: HCT-15
M14 = test system: M14
HOP-92 = test system: HOP-92
MDA-MB-435 = test system: MDA-MB-435
SF-295 = test system: SF-295
SR = test system: SR
MDA-N = test system: MDA-N
UACC-62 = test system: UACC-62
SK-MEL-28 = test system: SK-MEL-28
U-251 = test system: U-251
CAKI-1 = test system: CAKI-1
KM12 = test system: KM12
RPMI-8226 = test system: RPMI-8226
Malme-3M = test system: Malme-3M
MOLT-4 = test system: MOLT-4
HOP-62 = test system: HOP-62
HCT-116 = test system: HCT-116
K562 = test system: K562
Hs-578T = test system: Hs-578T
NCI/ADR-RES = test system: NCI/ADR-RES
NCI-H522 = test system: NCI-H522
TK-10 = test system: TK-10
SN12C = test system: SN12C
NCI-H226 = test system: NCI-H226
SK-MEL-5 = test system: SK-MEL-5
EKVX = test system: EKVX
LOX IMVI = test system: LOX IMVI
HL-60 = test system: HL-60
SF-539 = test system: SF-539
UACC-257 = test system: UACC-257
UO-31 = test system: UO-31
SK-MEL-2 = test system: SK-MEL-2
A498 = test system: A498
SK-OV-3 = test system: SK-OV-3
OVCAR-8 = test system: OVCAR-8
PC-3 = test system: PC-3
OVCAR-5 = test system: OVCAR-5
OVCAR-3 = test system: OVCAR-3
CCRF-CEM = test system: CCRF-CEM
BT-549 = test system: BT-549
COLO 205 = test system: COLO 205
IGROV-1 = test system: IGROV-1
NCI-H23 = test system: NCI-H23
MCF7 = test system: MCF7
SW-620 = test system: SW-620
SNB-75 = test system: SNB-75
786-0 = test system: 786-0
OVCAR-4 = test system: OVCAR-4
ACHN = test system: ACHN
DU-145 = test system: DU-145
HCC 2998 = test system: HCC 2998

Measured: GI50

CC(=O)OC(C(=O)O)C(OC(C)=O)C(OC(C)=O)C(OC(C)=O)C(=O)O (centres undefined)
inactive: A549 > 100 µM | HT-29 > 100 µM | SF-268 > 100 µM | NCI-H460 > 100 µM | SNB-19 > 100 µM | MDA-MB-231 > 100 µM | M14 > 100 µM | HOP-92 > 100 µM | MDA-MB-435 > 100 µM | SF-295 > 100 µM | SR > 100 µM | MDA-N > 100 µM | UACC-62 > 100 µM | SK-MEL-28 > 100 µM | U-251 > 100 µM | CAKI-1 > 100 µM | KM12 > 100 µM | RPMI-8226 > 100 µM | Malme-3M > 100 µM | MOLT-4 > 100 µM | HOP-62 > 100 µM | HCT-116 > 100 µM | K562 > 100 µM | Hs-578T > 100 µM | NCI/ADR-RES > 100 µM | NCI-H522 > 100 µM | TK-10 > 100 µM | SN12C > 100 µM | NCI-H226 > 100 µM | SK-MEL-5 > 100 µM | EKVX > 100 µM | LOX IMVI > 100 µM | HL-60 > 100 µM | SF-539 > 100 µM | UACC-257 > 100 µM | UO-31 > 100 µM | SK-MEL-2 > 100 µM | A498 > 100 µM | SK-OV-3 > 100 µM | OVCAR-8 > 100 µM | PC-3 > 100 µM | OVCAR-5 > 100 µM | OVCAR-3 > 100 µM | CCRF-CEM > 100 µM | BT-549 > 100 µM | COLO 205 > 100 µM | IGROV-1 > 100 µM | NCI-H23 > 100 µM | MCF7 > 100 µM | SW-620 > 100 µM
> 100 µM: HCT-15

C=C(C)[C@H]1CC(=O)/C(C)=C\CC/C(C)=C/CC[C@@]2(C)O[C@@H]2C1
33.9 µM: HCT-15
inactive: A549 15.8 µM | HT-29 16.3 µM | SF-268 23 µM | NCI-H460 16.8 µM | SNB-19 59.8 µM | MDA-MB-231 34.2 µM | M14 32.5 µM | HOP-92 48.5 µM | MDA-MB-435 17 µM | SF-295 34.3 µM | SR 25.4 µM | MDA-N 35.2 µM | SNB-75 41.4 µM | UACC-62 8.47 µM | SK-MEL-28 19.2 µM | U-251 22.5 µM | CAKI-1 1.99 µM | KM12 20.8 µM | RPMI-8226 20.7 µM | Malme-3M 36.8 µM | 786-0 47.5 µM | MOLT-4 31.8 µM | HOP-62 40.2 µM | HCT-116 16 µM | K562 28.4 µM | Hs-578T 30.9 µM | NCI/ADR-RES 21.8 µM | TK-10 31.9 µM | SN12C 20.8 µM | SK-MEL-5 23.7 µM | LOX IMVI 10.9 µM | HL-60 27.5 µM | SF-539 20 µM | UACC-257 81.7 µM | UO-31 20.7 µM | SK-MEL-2 35.8 µM | OVCAR-4 22 µM | A498 > 100 µM | ACHN 29.4 µM | SK-OV-3 24.4 µM | OVCAR-8 35.5 µM | PC-3 24.8 µM | OVCAR-5 35.4 µM | OVCAR-3 17 µM | DU-145 17.7 µM | CCRF-CEM 35.1 µM | BT-549 47.6 µM | HCC 2998 34.5 µM | COLO 205 16.5 µM | IGROV-1 29 µM | NCI-H23 22.3 µM | SW-620 46.3 µM
